In US8236790B2, “Benzothiadiazepine compounds, a process for their preparation and pharmaceutical compositions containing them” (Les Laboratories Servier, priority 2009, dated 2012):

Key:
[1] = test system: CD1 mouse; assay: Object recognition in the CD1 mouse; format: in vivo; conditions: doses of 1 and 3 mg/kg PO, 60 minutes before each of the 3 phases
Description: Object Recognition in the CD1 Mouse
The object recognition test (Behay. Brain Res., 1988, 31, 47-59) is based on the spontaneous exploratory activity of the animal and has the characteristics of episodic memory in humans. This memory test is sensitive to ageing (Eur. J. Pharmacol., 1997, 325, 173-180) and to cholinergic dysfunctions (Pharm. Biochem. Behay., 1996, 53(2), 277-283) and is based on the differences in the exploration of 2 objects of fairly similar shape—one familiar, the other new. The test procedure, which has been adapted for the CD1 mouse, comprises 3 phases which take place in the same test enclosure. During the first phase, which lasts 40 minutes, the mice are habituated to the environment. During the second phase, which takes place the next day, an object is placed in the enclosure and the mouse is free to explore it. Once the duration of that exploration has reached 20 seconds, the mouse is taken out of the enclosure. In the course of the third phase (5 minutes), 24 hours later, the same object is presented (acquiring the status of a “familiar” object), as well as a new object. The duration of exploration, expressed in seconds, is timed for each of the two objects.

[2] = test system: NMDA-type glutamatergic receptors from rat cortex; assay: Current induced by NMDA in oocytes of Xenopus laevis injected with poly(A+) mRNA from rat cortex (two-electrode voltage clamp); format: cell-based; conditions: NMDA 3×10^−4M with 3×10^−5M glycine, −60 mV, magnesium-free OR2; read-out: IC50 (concentration of product which inhibits the current induced by NMDA by 50%)
Experimental: Effect of Compounds on the Current Induced by NMDA in Oocytes of Xenopus laevis Injected with Poly(A^+) mRNA from Rat Cortex
Electrophysiological recordings are carried out on oocytes of Xenopus laevis injected with poly(A^+) mRNA from rat cortex and expressing, inter alia, NMDA-type glutamatergic receptors from rat cortex, in a plexiglass recording chamber continuously perfused with OR2 solution not containing magnesium (which blocks the opening of the NMDA receptor channel) and at ambient temperature. The inward current induced by an application of NMDA is recorded at a resting potential of −60 mV, using a standard two-electrode voltage clamp technique. The NMDA (3×10^−4M) is applied with the perfusion solution in the presence of 3×10^−5M glycine for 30 seconds every 5 minutes, at a constant perfusion rate of 3 ml/min. The amplitude of the current induced by NMDA is measured at the peak of the current. The tested compounds are applied at increasing doses to the same oocyte in the perfusion solution 45 seconds before, 30 seconds during and 30 seconds after the application of 3×10^−4M NMDA in the presence of 3×10^−5M glycine every 5 minutes. The amplitude of the current induced by NMDA in the presence of compound is normalised and expressed as a percentage of that induced in the same oocyte in the absence of product, which corresponds to 100% response. […]

[3] = test system: AMPA receptor; assay: Membrane depolarisation brought about by AMPA in primary cultures of rat neurons (fluorescence); format: cell-based; conditions: read-out: EC2X (the concentration of compound which doubles the membrane potential brought about by AMPA); cultured rat embryonic neurons, AMPA 3 to 100 μM
Experimental: Study of the Effect of Compounds on the Membrane Depolarisation Brought about by AMPA in Primary Cultures of Rat Neurons
The test comprises the in vitro measurement, by means of fluorescence, of the membrane depolarisation brought about in cultured rat embryonic neurons by the joint action of AMPA and the compound under test, compared to the action of AMPA alone. The brain cells are placed in culture and kept in a cell culture incubator for 18 days. After incubation, the culture medium is withdrawn and replaced with fluorescent probe loading medium for measurement of the membrane potential (20 μl; membrane potential kit from Molecular Devices) and left at ambient temperature for 1 hour. The base fluorescence of the wells is read (FDSS apparatus from Hamamatsu) and the cells are then injected with AMPA (20 μl; concentration range: from 3 to 100 μM) and the action of the AMPA is measured kinetically. The test compound is then introduced into the wells (20 μl; in a concentration range crossed with that of AMPA) and the action of the compound is measured kinetically. At the end of each of the two periods of kinetic measurement, the result for each well is the average reading over the final 15 seconds of the period. The curves are plotted of the effect of AMPA at the various concentrations of compound. […]

IC50 [2] | melting point | SMILES | exploration of the new object compared to the familiar object [1] | EC2X [3]
9 µM |  | O=S1(=O)NCCNc2ccc(Oc3ccccc3)cc21 [Example 1, 8-phenoxy-2,3,4,5-tetrahydro-1,2,5-benzothiadiazepine 1,1-dioxide] | significantly greater exploration of the new object | 25 µM
 | 134 °C | O=S1(=O)NCCNc2ccc(Oc3ccc(OCc4ccccc4)cc3)cc21 [Example 8, 8-[4-(benzyloxy)phenoxy]-2,3,4,5-tetrahydro-1,2,5-benzothiadiazepine 1,1-dioxide] |  | 
